Four molecules from patent US20070027109A1 (priority 2002, published 2007) can be followed below.

One series has as its system HIV-1 RoJo. In words: PBMC assay, HIV-1 RoJo replication (RT activity). In kind it is cell-based. As to conditions: for IC50 (50% inhibition of virus replication): 6 days; for anti-viral activity against HIV-1 RoJo virus: in vitro; for IC50: RoJo, PBMC. From the text: Human peripheral blood mononuclear cells from a minimum of two donors, that have been blasted with PHA and IL-2, were counted, viability determined by Trypan Blue dye exclusion and mixed in equal ratios. Pooled donors were used to minimize the variability observed between individual donors which results from quantitative and qualitative differences in HIV infection and overall response to the PHA and IL-2 of primary lymphocyte populations. […] Fifty microliters of cells were then distributed to the inner 60 wells of a 96 well round bottom microtiter culture plate in a standard format developed by the Infectious Disease Research department of Southern Research Institute. Each plate contains cell control wells (cells only), virus control wells (cells plus virus), and experimental wells (drug plus cells plus virus). Serially diluted compounds were added to the microtiter plate followed by the appropriate pretitered dilution of HIV-1 RoJo. All samples were assayed in triplicate with a replicate plate without virus for the determination of compound toxicity. The final volume per well was 200 μL. The assay was incubated for 6 days in a humidified atmosphere at 37° C., 5% CO2, after which supernatants were collected, for analysis of RT activity and sister plates analyzed for cell viability by MTS dye reduction. Wells were also examined microscopically and any abnormalities noted.
Reverse transcriptase (RT) activity was measured in cell-free supernatants. Tritiated thymidine triphosphate (NEN) (TTP) was resuspended in distilled H2O at 5 Ci/mL. Poly rA and oligo dT were prepared as a stock solution which was kept at −20° C. The RT reaction buffer was prepared fresh on a daily basis and consists of 125 μL 1.0 M EGTA, 125 μL dH2O, 110 μL 10% SDS, 50 μL 1.0 M Tris (pH 7.4), 50 μL 1.0 M DTT, and 40 μL 1.0 M MgCl2. These three solutions were mixed together in a ratio of two parts TTP, one part poly rA:oligo dT, and one part reaction buffer. Ten microliters of this reaction mixture were placed in a round bottom microtiter plate and 15 μL of virus containing supernatant was added and mixed. The plate was incubated at 37° C. in a water bath with a solid support to prevent submersion of the plate and incubated for 60 minutes. Following reaction, the reaction volume was spotted onto pieces of DE81 paper, washed 5 times for 5 minutes each in a 5% sodium phosphate buffer, two times for one minute each in distilled water, two times for one minute each in 70% ethanol, and then dried.
The IC50 and TC50 values were calculated by linear regression. The TI represents the ratio of the TC50/IC50, and is used to determine relative potency between compounds.

The subject of series [1] is Subtype B 302056 (91US056). Briefly: PBMC assay, HIV-1 subtype B. It counts as cell-based.
A further series deals with Subtype C BR/92/025. In words: PBMC assay, HIV-1 subtype C. In kind it is cell-based. As to conditions: Subtype C BR/92/025, PBMC.
The next series relates to Subtype E CMU02. In words: PBMC assay, HIV-1 subtype E. In kind it is cell-based.
A further series concerns Subtype F BR/93/020. In words: PBMC assay, HIV-1 subtype F. It counts as cell-based. As to conditions: Subtype F BR/93/020, PBMC.
The next series has as its system Subtype G Jv1083. In words: PBMC assay, HIV-1 subtype G. In kind it is cell-based.
A further series relates to MDR769. As to conditions: MDR769, PBMC. The method, then:
(§1) Human immunodeficiency virus type 1 (HIV-1) strains Ba-L, ADA, SIVmac251, HIV-2 (CDC3 10319) and the subtype representative strains (Table 6) were obtained from the NIAID AIDS Research and Reference Reagent Program. The low passage pediatric isolates SLKA, WeJo and TeKi were derived in the laboratories of Southern Research Institute.
PBMC assays were carried out as described in Example 6.
Reverse transcriptase (RT) activity was measured in cell-free supernatants as described in Example 6.

Another series deals with SIVmac251. Briefly: PBMC assay, SIVmac251. It counts as cell-based, SIV.
For a further series, the system named is HIV-2 (CDC 310319). In words: PBMC assay, HIV-2. In kind it is cell-based.
Series [2] concerns HIV-1 clinical isolates, SIV and HIV-2. As to conditions: all viruses of Table 8. How it is done:
The inhibition of HIV-1 ADA and BaL replication in monocyte/macrophages was also assessed.
as §1

A further series concerns monocyte/macrophages. In words: MTS staining for cell viability, monocyte/macrophages. In kind it is cell-based, human. The text has this:
Peripheral blood monocytes were isolated from normal HIV-1 negative donors by plastic adherence following ficoll hypaque purification of the buffy coat, as described above for PBMCs. In many cases the same donor used to produce the PBMC populations was also used to produce monocyte/macrophages, however unlike PBMC population monocyte/macrophage, donors were never pooled. […] The monocytes were released from the plastic by vigorous pipetting with Ca^2+ and Mg^2+ free PBS. […] The monocytes (1×10^5 per 0.2 cm well) were then cultured for six days, allowing maturation of the cells to a macrophagelike phenotype. […] Cultures were washed a final time by media removal 24 hours post infection, fresh compound added and the cultures continued for an additional six days. The assays were preformed using a standardized microtiter plate format, which uses only the inner 60 wells of a 96 well plate for assay purposes. The outer rows contain media and acts an a evaporation barrier. Each plate contains cell control wells (cells only), virus control wells (cells plus virus), and experimental wells (drug plus cells plus virus). HIV p24 antigen content to assess virus replication was measured at assay termination by a commercially available p24 ELISA assay (Coulter) on cell-free supernatants, and compound cytotoxicity by MTS dye reduction. […]

The subject of the next series is Subtype A RW/92/016. In words: PBMC assay, HIV-1 subtype A. It counts as cell-based. The settings on record: Subtype A RW/92/016, PBMC.
A further series relates to Subtype D UG/92/046. In words: PBMC assay, HIV-1 subtype D. In kind it is cell-based. As to conditions: Subtype D UG/92/046, PBMC.
Another series relates to Subtype O BCOF-01. Briefly: PBMC assay, HIV-1 subtype O. As to conditions: Subtype O BCOF-01, PBMC. In kind it is cell-based.
Another series has as its system WeJo. Briefly: PBMC assay, HIV-1 WeJo. It counts as cell-based.
The next series has as its system SLKA. In words: PBMC assay, HIV-1 SLKA. It counts as cell-based.
The next series has as its system TEKI. In words: PBMC assay, HIV-1 TEKI. In kind it is cell-based.
In the next series the test system is HIV-1 ADA. Briefly: Monocyte/macrophage assay, HIV-1 ADA (p24 ELISA). It counts as cell-based. As to conditions: monocytes. From the text: (§2) Peripheral blood monocytes were isolated from normal HIV-1 negative donors by plastic adherence following ficoll hypaque purification of the buffy coat, as described above for PBMCs. In many cases the same donor used to produce the PBMC populations was also used to produce monocyte/macrophages, however unlike PBMC population monocyte/macrophage, donors were never pooled. Following a two hour adherence in RPMI 1640 without phenol red supplemented with 10% human pooled AB serum (heat inactivated), 2 mM L-glutamine, 100 U/mL penicillin, 100 μg/mL streptomycin, 10 μg/mL gentamycin, cultures were washed to remove non-adherent cells. […] Adherent cells were assessed for purity by nonspecific esterase staining (a-napthyl butyrate specific esterase, Sigma Chemical Co.), and/or viability by Trypan Blue dye exclusion, counted and resuspended in RPMI 1640 supplemented with 10% Fetal Bovine Serum (heat inactivated), 2 mM L-glutamine, 100 U/mL penicillin, 100 μg/mL streptomycin, 10 μg/mL gentamycin at 1×10^6 monocytes per ml. […] HIV p24 antigen content to assess virus replication was measured at assay termination by a commercially available p24 ELISA assay (Coulter) on cell-free supernatants, and compound cytotoxicity by MTS dye reduction. […]
(§3) ELISA kits were purchased from Coulter Electronics. […] Control curves were generated in each assay to accurately quantitate the amount of p24 antigen in each sample. […]

Another series deals with HIV-1 Ba-L. Briefly: Monocyte/macrophage assay, HIV-1 Ba-L (p24 ELISA). As to conditions: monocytes. It counts as cell-based.
Text: as §2, §3
(In an ELISA, binding on a coated surface is turned into a signal by an enzyme label.)

The mark [3] stands for this setting: IC50 basis, HIV-1 RoJo, PBMCs, Example 6.

Several values for one entry are separate records, joined by “and”; a condition that tells them apart may be missing. Equal values may be shown once. Read-outs that look alike come from different tables or passages of the source. A value given as a limit tells only on which side of the number the result lay.

Usually IC50 stands for the concentration at which inhibition is half-maximal. Broadly, the CC50 is the concentration giving 50% cytotoxicity.

In the case of “dextran sulfate, 17-20% sulfur, molecular weight 39,700 [DES 17-20% Sulfation]”, the “IC50 (50% inhibition of virus replication)” value with HIV-1 RoJo (HIV-1 RoJo, PBMCs, Example 6) is 0.5 µg/mL and 1.0 µg/mL. Besides, the “anti-viral activity against HIV-1 RoJo virus” value (shortened to “anti-viral activity”) in the series on HIV-1 RoJo was “significant anti-viral activity”.

Regarding “sulfated dextran, 12.2% sulfur, molecular weight 36,000 [DES 12.5% Sulfation]”, the “IC50 (50% inhibition of virus replication)” value in the series with HIV-1 RoJo (HIV-1 RoJo, PBMCs, Example 6) was found to be 1.6 µg/mL. The IC50 result was “.7 µg/mL” in the series with HIV-1 RoJo (Example 7); “.8 µg/mL” in [1]; 10.3 µg/mL in the series on Subtype C BR/92/025; “.7 µg/mL” in the series on Subtype E CMU02; “.3 µg/mL” in the series on Subtype F BR/93/020; 11.7 µg/mL with Subtype G Jv1083. In addition, the values for the IC50 entry in the series with MDR769 and in the series with SIVmac251 were “.7 µg/mL” and “.6 µg/mL”, respectively. Besides, the “anti-viral activity” value in the series on HIV-1 RoJo was “significant anti-viral activity”.

As for “sulfated dextran, 9.5% sulfur, molecular weight 30,000 [DES 9.5% Sulfation]”, the “fold less active than DES […] Sulfation” value with HIV-1 RoJo (HIV-1 RoJo infected PBMCs, Example 7) is reported as 37 fold; in the series on HIV-1 RoJo (setting [3]), 12 fold. For the same molecule, the “IC50 (50% inhibition of virus replication)” value in the series with HIV-1 RoJo (HIV-1 RoJo, PBMCs, Example 6) came out at 19.4 µg/mL. The “fold less active than DES 17-20% Sulfation” value in the series on HIV-1 RoJo (setting [3]) is 39 fold. In the series with HIV-1 RoJo, the “anti-viral activity” value was “significant anti-viral activity”. Further, the IC50 in the series with Subtype G Jv1083 was > 100 µg/mL; in the series on MDR769, 13 µg/mL; with HIV-2 (CDC 310319), 5.1 µg/mL. Further, the “IC50s, range over the virus panel” value in [2] was 5.1 to >100 μg/ml.

As to `Cc1cn([C@H]2C[C@H](N=[N+]=[N-])[C@@H](CO)O2)c(=O)[nH]c1=O` [AZT], the IC50 with HIV-1 RoJo (Example 7, read-out: IC50) is 2 nM; with Subtype A RW/92/016 it was 1 nM; in [1] (read-out: IC50) it was 10 nM; in the series with Subtype C BR/92/025 (read-out: IC50) it was 5 nM; in the series with Subtype D UG/92/046, 1 nM; in the series on Subtype F BR/93/020 (read-out: IC50), 3 nM. The IC50 in the series with Subtype G Jv1083 (read-out: IC50) was 6 nM; with Subtype O BCOF-01, 3 nM; in the series with WeJo, 3 nM; in the series with SLKA, 2 nM; in the series on TEKI, 10 nM; in the series with HIV-1 ADA it was 7 nM. In addition, the IC50 is 4 nM with HIV-1 Ba-L, 2 nM with SIVmac251 (read-out: IC50) and 0.4 nM in the series on HIV-2 (CDC 310319) (read-out: IC50). This molecule also showed a CC50 in the series on monocyte/macrophages of 1000 nM.
